In US20260167742A1, “METHOD FOR TREATING GASTRIC CANCER BY COMBINING ANTI-HER2 ANTIBODY AND CHEMOTHERAPEUTIC AGENT, AND USE” (SHANGHAI HENLIUS BIOTECH, INC., priority 2023, published 2026):

How the values were obtained:
Assay type in all cases: cell-based, human
[1] = system: gastric cancer cells NCI-N87; assay: HER2 internalization (endocytosis) assay, pHrodo Green staining, flow cytometry; details: 10 μg/mL
Method: (§1) A HER2 internalization assay was performed using pHrodoiFL Green STP ester amine reactive dye (P35369, Invitrogen). […] After a short wash with a wash buffer to remove unbound antibodies, one group of cells was placed on ice for freezing to stop internalization, and the remaining cells were placed in a 37° C. incubator for further incubation. After the co-incubation with the antibody, the cells were fixed with a fixation buffer (420801, Biolegend) for 30 min. Finally, all stained cells were washed with a staining buffer and analyzed on the CytoFLEX LX flow cytometer (Beckman Coulter, USA).

[2] = system: gastric cancer cells SNU216; assay: as above; details: 10 μg/mL
Method: as §1

[3] = system: NCI-N87 cells; assay: Apoptosis assay (Caspase-Glo 3/7); details: 24 h treatment
Method: The apoptosis was assessed by measuring the activity of caspases 3/7 in gastric cancer NCI-N87 cells using the Caspase-Glo®3/7 Assay system. A xenograft human gastric cancer NCI-N87 model and a human gastric cancer PDX model were treated with the antibodies at given doses. All data are presented as mean±SEM. The p values were calculated using Student's t test. ** denotes p<0.01, and * denotes p<0.05.
The apoptosis was assessed by measuring the activity of caspases 3/7 in NCI-N87 cells using the Caspase-Glo®3/7 Assay (G8093, Promega) system. The cells were seeded in a 96-well plate (CLS3799, Corning) at about 1.5×10^4 cells/well and incubated overnight. The original medium was replaced with a drug-containing culture medium of 100 μL, and the cells were treated for 24 h. After an incubation at room temperature for 30 min, 100 μL of Caspase-Glo 3/7 reagent was added. The plate was incubated in the dark for 30 min and detected using Spark (Tecan, Switzerland) after gentle shaking.

Substance: pertuzumab: antibody comprising heavy chain SEQ ID NO: 13 and light chain SEQ ID NO: 14 [reference compound]
- HER2 internalization (endocytosis) [1]: weak endocytosis
- HER2 internalization (endocytosis) [2]: weak endocytosis
- apoptosis (caspases 3/7 activity) [3]: did not significantly induce the apoptosis of NCI-N87 cells
